Tests used:
dulcitol accumulation = assay: Galactosemic rats, % lowering of dulcitol (galactitol) accumulation in vivo; parameters: species or system Sprague-Dawley rats; settings: for % Lowering dulcitol accumulation IN VIVO, D: diaphragm; for % Lowering dulcitol accumulation IN VIVO, D / % Lowering dulcitol accumulation IN VIVO, L: 4 days; for % Lowering dulcitol accumulation IN VIVO, L: lens
Description: Such experiments are exemplified hereinbelow after the listing of the following general comments pertaining to these experiments:
(a) Four or more groups of six male rats, 50-70 g, Sprague-Dawley strain, were used. The first group, the control group, was fed a mixture of laboratory chow (rodent Laboratory Chow, Purina) and glucose at 20% (w/w %) concentration. […] The test compound was either admixed to the diet or administered by gavage. In experiments involving compound administration in the diet, the average dose administered was calculated from the actual food intake of the animals in each group. The concentration of galactose in the diet of the treated groups was the same as that for the untreated galactosemic group.
(b) After four days, the animals were killed by decapitation. The eyeballs were removed and punctured with a razor blade; the freed lenses were rolled gently on filter paper and weighed. The sciatic nerves were dissected as completely as possible and weighed. Both tissues when frozen can be kept up to two weeks before being analyzed for galactitol.
Only two minor reagent changes were made: (a) the rinsing mixture was an aqueous 5% (w/v) trichloroacetic acid solution and (b) the stock solution was prepared by dissolving 25 mg of dulcitol in 100 mL of an aqueous trichloroacetic acid solution. [N.B.: For each experiment the average value found in the tissue from rats fed the glucose diet was subtracted from the individual values found in the corresponding tissue in galactose-fed rats to obtain the amount of polyol accumulated.]
The figures under L, N, and D represent the percentage decrease of galactitol accumulation in the tissues of the lens, sciatic nerve, and diaphragm, respectively, for treated rats as compared to untreated rats.

[1] = system: Sciatic Nerve Polyol Accumulation; assay: Two-Week Streptozocin-Diabetic Rat Model, % lowering of sciatic nerve polyol accumulation; assay type: in vivo, Sprague-Dawley rats; settings: gavage, 14 days
[2] = system: Sciatic Nerve Polyol Accumulation; assay: as above; assay type: in vivo, Sprague-Dawley rats; settings: gavage, 14 days; remark: listed apart in the source
Description: A second in vivo model examined the effect of the compounds of the present invention on sorbitol accumulation in the tissues of 14-day streptozocin (STZ) (Upjohn) diabetic rats.
In each of the studies male Sprague-Dawley rats from Charles River Labs, Kingston, NY, weighing 200 to 250 g, were used. The animals were weighed and observed for 5 days prior to the start of the study.
In each study the rats were randomly assigned by weight into groups of 15 animals except for group I which contained 8 animals. The groups were treated as follows:
Group II: STZ, 110 mg/kg i.p.
Group IV: STZ, 110 mg/kg i.p. followed by various doses of a compound of the present invention given by gavage for 14 days, beginning on the day of induction of diabetes.
Following an overnight fast (water ad lib) the animals in groups II-IV were given by i.p. injection 110 mg STZ per kg body weight. The STZ was dissolved in cold citric acid, 0.03M, pH 4.5 and injected within 5 minutes of being dissolved. Control rats (group I) were injected with buffer only. One hour following the injection, standard laboratory chow (Rodent lab chow 5001, Purina) was placed in the cages.
Two days after STZ injection plasma glucose levels (from the tail vein) were determined following a 4 hour fast. Excluded from the study were animals whose plasma glucose was below 300 mg/dl. Control animals with plasma glucose levels greater than 200 mg/dl were also excluded.
On the morning of the 14th day following STZ injection the animals were fasted 4 hours prior to sacrificing by decapitation. The blood was collected into heparin containing tubes and placed on ice. Both lenses and sciatic nerves were removed immediately, weighed, frozen, and stored at -20° C. until analyzed for sorbitol. The RBCs were collected by centrifugation, the plasma was removed and the cells were washed once with 10 volumes of cold saline. The washed packed RBCs were divided into 1 mL aliquots, extracted with cold perchloric acid and the acid extracts were stored at -20° C. until analyzed for sorbitol.

aldose reductase = biological target: T1, aldose reductase (Bos taurus, UniProt P16116); assay: In vitro aldose reductase inhibition (modified Hayman and Kinoshita procedure, enzyme from bovine lens); assay type: biochemical; settings: for inhibition at 0.04 µM: read-out: % Inhibition IN VITRO 4 × 10^-8 M; for inhibition at 10 µM: read-out: % Inhibition IN VITRO 10^-5 M; for inhibition at 1 µM: read-out: % Inhibition IN VITRO 10^-6 M; for inhibition at 0.1 µM: read-out: % Inhibition IN VITRO 10^-7 M
T1 construct: preparation of the enzyme from bovine lens; from tissue; host or cells: bovine lens
Description: In the present case the procedure of Hayman and Kinoshita was modified in that the final chromatography step was omitted in the preparation of the enzyme from bovine lens.

[3] = 15 mg/kg, N.S. = not significant
[4] = 5.2 mg/kg, N.S. = not significant
[5] = 27 mg/kg, N.S. = not significant

SMILES: COC(=O)N(CC(=O)O)C(=O)c1c(F)ccc2c(C(F)(F)F)c(OC)ccc12 [Example 1, N-[[2-fluoro-6-methoxy-5-(trifluoromethyl)-1-naphthalenyl]carbonyl]-N-(methoxycarbonyl)glycine]
- results in the sciatic nerve compared with tolrestat (dulcitol accumulation; 10 mg/kg/day vs tolrestat at 9 mg/kg/day, sciatic nerve): comparable results
- % Lowering dulcitol accumulation IN VIVO, D (dulcitol accumulation; 5 mg/kg): 52%
- % Lowering dulcitol accumulation IN VIVO, D (dulcitol accumulation; 10 mg/kg): 62%
- % Lowering dulcitol accumulation IN VIVO, L (dulcitol accumulation; 5 mg/kg, N.S. = not significant): N.S.
- % Lowering dulcitol accumulation IN VIVO, L (dulcitol accumulation; 10 mg/kg, N.S. = not significant): N.S.
- % Lowering dulcitol accumulation IN VIVO, L (dulcitol accumulation; 14 mg/kg, N.S. = not significant): N.S.
- % Lowering dulcitol accumulation IN VIVO, L (dulcitol accumulation; [3]): N.S.
- % Lowering of Sciatic Nerve Polyol Accumulation, Fructose (%) ([1]; 2 mg/kg): 22%
- % Lowering of Sciatic Nerve Polyol Accumulation, Fructose (%) ([1]; 5 mg/kg): 36%
- % Lowering of Sciatic Nerve Polyol Accumulation, Fructose (%) ([1]; 10 mg/kg): 72%
- % Lowering of Sciatic Nerve Polyol Accumulation, Fructose (%) ([1]; 15 mg/kg): 86%
- % Lowering of Sciatic Nerve Polyol Accumulation, Sorbitol (%) ([2]; 2 mg/kg): 38%
- % Lowering of Sciatic Nerve Polyol Accumulation, Sorbitol (%) ([2]; 5 mg/kg): 39%
- % Lowering of Sciatic Nerve Polyol Accumulation, Sorbitol (%) ([2]; 10 mg/kg): 85%
- % Lowering of Sciatic Nerve Polyol Accumulation, Sorbitol (%) ([2]; 15 mg/kg): 85%
- inhibition at 0.04 µM (aldose reductase): 59%
- inhibition at 10 µM (aldose reductase): 99%
- inhibition at 1 µM (aldose reductase): 95%
- inhibition at 0.1 µM (aldose reductase): 86%

SMILES: COc1ccc2c(C(=S)N(C)CC(=O)O)cccc2c1C(F)(F)F [Tolrestat, N-[[6-methoxy-5-(trifluoromethyl)-1-naphthalenyl]thioxo-methyl]-N-methylglycine, reference compound]
- % Lowering dulcitol accumulation IN VIVO, L (dulcitol accumulation; 9 mg/kg, N.S. = not significant): N.S.
- % Lowering of Sciatic Nerve Polyol Accumulation, Fructose (%) ([1]; 6 mg/kg): 63%
- % Lowering of Sciatic Nerve Polyol Accumulation, Sorbitol (%) ([2]; 6 mg/kg): 80%

SMILES: COC(=O)N(CC(N)=O)C(=O)c1c(F)ccc2c(C(F)(F)F)c(OC)ccc12 [Example 2, [[[2-Fluoro-6-methoxy-5-(trifluoromethyl)-1-naphthalenyl]carbonyl](methoxycarbonyl)amino]acetamide]
- % Lowering dulcitol accumulation IN VIVO, D (dulcitol accumulation; [4]): N.S.
- % Lowering dulcitol accumulation IN VIVO, D (dulcitol accumulation; 10.4 mg/kg): 23%
- % Lowering dulcitol accumulation IN VIVO, L (dulcitol accumulation; [4]): N.S.
- % Lowering dulcitol accumulation IN VIVO, L (dulcitol accumulation; 10.4 mg/kg, N.S. = not significant): N.S.
- inhibition at 10 µM (aldose reductase): 2%
- inhibition at 1 µM (aldose reductase): 0%

SMILES: COC(=O)N(CC(=O)O)C(=O)c1c(OCC(F)(F)F)ccc2c(C(F)(F)F)c(OC)ccc12 [Example 6, N-[[6-Methoxy-2-(2,2,2-trifluoroethoxy)-5-(trifluoromethyl)-1-naphthalenyl]carbonyl]-N-(methoxycarbonyl)glycine]
- % Lowering dulcitol accumulation IN VIVO, D (dulcitol accumulation; 27 mg/kg): 49%
- % Lowering dulcitol accumulation IN VIVO, L (dulcitol accumulation; [5]): N.S.
- inhibition at 0.04 µM (aldose reductase): 56%
- inhibition at 0.1 µM (aldose reductase): 83%

SMILES: COC(=O)N(CC(=O)O)C(=O)c1c(Br)ccc2c(C(F)(F)F)c(OC)ccc12 [Example 5, N-[[2-Bromo-6-methoxy-5-(trifluoromethyl)-1-naphthalenyl]carbonyl]-N-(methoxycarbonyl)glycine]
- % Lowering dulcitol accumulation IN VIVO, D (dulcitol accumulation; 51 mg/kg): 62%
- % Lowering dulcitol accumulation IN VIVO, L (dulcitol accumulation; 51 mg/kg, N.S. = not significant): N.S.
- inhibition at 0.04 µM (aldose reductase): 54%
- inhibition at 10 µM (aldose reductase): 97%
- inhibition at 1 µM (aldose reductase): 92%
- inhibition at 0.1 µM (aldose reductase): 77%

SMILES: COC(=O)N(CC(=O)O)C(=O)c1c(Cl)ccc2c(C(F)(F)F)c(OC)ccc12 [Example 4, N-[[2-Chloro-6-methoxy-5-(trifluoromethyl)-1-naphthalenyl]carbonyl]-N-(methoxycarbonyl)glycine]
- % Lowering dulcitol accumulation IN VIVO, D (dulcitol accumulation; 26 mg/kg): 68%
- % Lowering dulcitol accumulation IN VIVO, L (dulcitol accumulation; 26 mg/kg, N.S. = not significant): N.S.
- inhibition at 0.04 µM (aldose reductase): 57%
- inhibition at 10 µM (aldose reductase): 98%
- inhibition at 1 µM (aldose reductase): 95%
- inhibition at 0.1 µM (aldose reductase): 85%

SMILES: CCOC(=O)N(CC(=O)O)C(=O)c1c(OCC(F)(F)F)ccc2c(C(F)(F)F)c(OC)ccc12 [Example 7, N-(Ethoxycarbonyl)-N-[[6-methoxy-2-(2,2,2-trifluoroethoxy)-5-(trifluoromethyl)-1-naphthalenyl]carbonyl]glycine]
- % Lowering dulcitol accumulation IN VIVO, D (dulcitol accumulation; 27 mg/kg): 39%
- % Lowering dulcitol accumulation IN VIVO, L (dulcitol accumulation; [5]): N.S.
- inhibition at 0.04 µM (aldose reductase): 47%
- inhibition at 10 µM (aldose reductase): 98%
- inhibition at 1 µM (aldose reductase): 90%
- inhibition at 0.1 µM (aldose reductase): 78%

SMILES: CCOC(=O)N(CC(=O)O)C(=O)c1c(F)ccc2c(C(F)(F)F)c(OC)ccc12 [Example 3, N-(Ethoxycarbonyl)-N-[[2-fluoro-6-methoxy-5-(trifluoromethyl)-1-naphthalenyl]carbonyl]glycine]
- % Lowering dulcitol accumulation IN VIVO, D (dulcitol accumulation; 15 mg/kg): 59%
- % Lowering dulcitol accumulation IN VIVO, D (dulcitol accumulation; 25 mg/kg): 65%
- % Lowering dulcitol accumulation IN VIVO, L (dulcitol accumulation; [3]): N.S.
- % Lowering dulcitol accumulation IN VIVO, L (dulcitol accumulation; 25 mg/kg, N.S. = not significant): N.S
- inhibition at 0.04 µM (aldose reductase): 67%
- inhibition at 10 µM (aldose reductase): 99%
- inhibition at 1 µM (aldose reductase): 95%
- inhibition at 0.1 µM (aldose reductase): 87%

SMILES: CCOC(=O)N(CC(=O)O)C(=O)c1c(Br)ccc2c(C(F)(F)F)c(OC)ccc12 [Example 9, N-[[2-Bromo-6-methoxy-5-(trifluoromethyl)-1-naphthalenyl]carbonyl]-N-(ethoxycarbonyl)glycine]
- % Lowering dulcitol accumulation IN VIVO, D (dulcitol accumulation; 43 mg/kg): 27%
- % Lowering dulcitol accumulation IN VIVO, L (dulcitol accumulation; 43 mg/kg, N.S. = not significant): N.S.
- inhibition at 0.04 µM (aldose reductase): 52%
- inhibition at 10 µM (aldose reductase): 98%
- inhibition at 1 µM (aldose reductase): 93%
- inhibition at 0.1 µM (aldose reductase): 76%

SMILES: CCOC(=O)N(CC(=O)O)C(=O)c1c(Cl)ccc2c(C(F)(F)F)c(OC)ccc12 [Example 8, N-[[2-Chloro-6-methoxy-5-(trifluoromethyl)-1-naphthalenyl]carbonyl]-N-(ethoxycarbonyl)glycine]
- % Lowering dulcitol accumulation IN VIVO, D (dulcitol accumulation; 50 mg/kg): 47%
- % Lowering dulcitol accumulation IN VIVO, L (dulcitol accumulation; 50 mg/kg, N.S. = not significant): N.S.
- inhibition at 0.04 µM (aldose reductase): 47%
- inhibition at 0.1 µM (aldose reductase): 79%
